Experiments:
PERK = PERK (Homo sapiens (Human), UniProt Q9NZJ5); test: PERK cellular assay (TR-FRET, HEK293-EGFP-eIF2α cells, tunicamycin-induced ER stress); assay type: cell-based; conditions: tunicamycin 2 hours, read-out: Cellular IC50 (μM) (EIF2a)
Method in brief: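 After 2 h tunicamycin ([…]) stress following 30 min compound pretreatment at 37 °C, lysed HEK293-EGFP-eIF2α cells were read by TR-FRET. IC50 derived by 4-parameter logistic fitting of percent inhibition, DMSO-normalized, from 10-point 3-fold dilutions.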

[1] = molecular target: EIF2AK3 (PERK) catalytic domain (amino acids 536-1116) (Homo sapiens (Human), UniProt Q9NZJ5); test: PERK in vitro activity assay (isolated), TR-FRET kinase assay; conditions: isolated PERK enzyme, 1.5 μM ATP, GFP-eIF2a substrate; read-out: Biochemical IC50
EIF2AK3 (PERK) catalytic domain (amino acids 536-1116), sequence (Q9NZJ5 536-1116): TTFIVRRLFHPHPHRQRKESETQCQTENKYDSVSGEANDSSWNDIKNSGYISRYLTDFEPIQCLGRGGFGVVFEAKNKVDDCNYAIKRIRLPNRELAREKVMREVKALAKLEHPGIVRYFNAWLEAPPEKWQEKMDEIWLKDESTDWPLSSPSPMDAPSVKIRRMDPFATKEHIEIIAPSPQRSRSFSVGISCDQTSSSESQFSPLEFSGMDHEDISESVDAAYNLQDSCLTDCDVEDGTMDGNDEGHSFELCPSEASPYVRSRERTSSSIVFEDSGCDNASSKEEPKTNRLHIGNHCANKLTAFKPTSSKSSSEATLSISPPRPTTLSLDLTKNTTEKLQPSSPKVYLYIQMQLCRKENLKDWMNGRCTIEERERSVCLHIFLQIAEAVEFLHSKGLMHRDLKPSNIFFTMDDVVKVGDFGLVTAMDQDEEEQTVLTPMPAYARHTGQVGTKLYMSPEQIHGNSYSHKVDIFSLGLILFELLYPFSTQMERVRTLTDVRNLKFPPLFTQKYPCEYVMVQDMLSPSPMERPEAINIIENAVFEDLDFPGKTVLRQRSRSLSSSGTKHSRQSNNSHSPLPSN
Method in brief: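 Human PERK catalytic domain (aa 536-1116) with 100-200 nM GFP-eIF2a in 50 mM HEPES pH 7.5, 10 mM MgCl2, 1.0 mM EGTA, 0.01% Brij-35; enzyme-started reaction run 45 min at room temperature. Stopped with 10 mM EDTA, 2 nM Tb-anti-phospho-eIF2a added for 90 min; IC50 from TR-FRET ratio by 4-parameter logistic fit.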

PERK, sequence (Q9NZJ5 30-1116): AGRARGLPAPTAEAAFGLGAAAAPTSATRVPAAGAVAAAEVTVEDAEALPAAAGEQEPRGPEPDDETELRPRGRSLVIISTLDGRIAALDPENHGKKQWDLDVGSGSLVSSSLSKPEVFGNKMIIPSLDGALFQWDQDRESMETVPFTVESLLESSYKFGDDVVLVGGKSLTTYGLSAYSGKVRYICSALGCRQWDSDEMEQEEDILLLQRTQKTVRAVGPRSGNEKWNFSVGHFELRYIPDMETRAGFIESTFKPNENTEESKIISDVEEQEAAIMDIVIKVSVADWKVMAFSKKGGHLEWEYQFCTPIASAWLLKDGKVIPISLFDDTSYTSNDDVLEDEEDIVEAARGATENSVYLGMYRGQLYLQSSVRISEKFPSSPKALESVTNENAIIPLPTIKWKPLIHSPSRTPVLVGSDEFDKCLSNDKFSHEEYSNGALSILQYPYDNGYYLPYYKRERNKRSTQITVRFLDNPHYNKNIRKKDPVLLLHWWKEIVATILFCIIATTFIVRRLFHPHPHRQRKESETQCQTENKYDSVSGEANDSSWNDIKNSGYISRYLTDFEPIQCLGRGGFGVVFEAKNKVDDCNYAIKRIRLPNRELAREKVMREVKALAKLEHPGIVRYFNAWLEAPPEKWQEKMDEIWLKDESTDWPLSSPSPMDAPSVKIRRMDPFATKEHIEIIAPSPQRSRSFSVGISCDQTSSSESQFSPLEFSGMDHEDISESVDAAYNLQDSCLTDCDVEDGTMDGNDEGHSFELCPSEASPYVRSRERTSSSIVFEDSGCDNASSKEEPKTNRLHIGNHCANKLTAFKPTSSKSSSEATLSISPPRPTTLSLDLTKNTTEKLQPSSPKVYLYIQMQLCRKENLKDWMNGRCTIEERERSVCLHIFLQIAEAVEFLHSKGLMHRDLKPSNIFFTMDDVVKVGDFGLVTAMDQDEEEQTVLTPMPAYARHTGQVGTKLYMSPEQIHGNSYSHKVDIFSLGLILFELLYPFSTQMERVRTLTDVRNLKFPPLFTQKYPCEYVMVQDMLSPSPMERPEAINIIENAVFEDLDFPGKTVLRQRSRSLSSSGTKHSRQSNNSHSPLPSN

For `Cc1cc(NC(=O)C(O)c2cc(F)cc(F)c2)c(F)cc1-c1cnc(N)c(C(=O)NC(C)C)c1` (stereo not drawn) [Example 126, 2-amino-5-(4-(2-(3,5-difluorophenyl)-2-hydroxyacetamido)-5-fluoro-2-methylphenyl)-N-isopropylnicotinamide], which IC50 (PERK) is on record?
The IC50 was 0.101 to 0.25 µM.

What about the IC50 [1] of the same molecule?
The IC50 was 1 to 25 nM.

Which results are given for `Cc1cc(NC(=O)C(O)c2cc(F)cc(F)c2)ccc1-c1cnc(C)c(C(=O)NC(C)C)c1` (stereo not drawn) [Example 176, 5-(4-(2-(3,5-difluorophenyl)-2-hydroxyacetamido)-2-methylphenyl)-N-isopropyl-2-methylnicotinamide]?
IC50 (PERK): 0.501 to 1 µM; IC50 [1]: 51 to 100 nM

For `CCc1cc(NC(=O)C(O)c2cc(F)cc(F)c2)ccc1-c1cnc(N)c(C(=O)NC(C)C)c1` (single isomer, unassigned) [Example 39, 2-amino-5-(4-(2-(3,5-difluorophenyl)-2-hydroxyacetamido)-2-ethylpehnyl)-N-isopropylnicotinamide], which IC50 (PERK) is on record?
Its IC50 is 0.101 to 0.25 µM.

What about the IC50 [1] of the same molecule?
Its IC50 is 101 to 250 nM.

Which results are given for `Cc1cc(NC(=O)C(O)c2cc(F)cc(F)c2)ccc1-c1cnc(N)c(C(=O)OC(C)C)c1` (single isomer, unassigned) [Example 43, isopropyl 2-amino-5-(4-(2-(3,5-difluorophenyl)-2-hydroxyacetamido)-2-methylphenyl) nicotinate]?
IC50 (PERK): 0.251 to 0.5 µM; IC50 [1]: 51 to 100 nM

What does the source list for `Cc1cc(NC(=O)C(O)c2cccc3cnn(C)c23)ccc1-c1cnc(N)c(C(=O)NC(C)C)c1` (stereo not drawn) [Example 76, 2-amino-5-(4-(2-hydroxy-2-(1-methyl-1H-indazol-7-yl)acetamido)-2-methylphenyl)-N-isopropylnicotinamide]?
IC50 (PERK): 3 to 4 µM; IC50 [1]: 251 to 500 nM

Which IC50 (PERK) does the source give for `Cc1cc(NC(=O)C(O)c2cc(F)cc(F)c2)ccc1-c1cnc(N)c(C(=O)NC(C)C)n1` (stereo not drawn) [Example 133, 3-amino-6-(4-(2-(3,5-difluorophenyl)-2-hydroxyacetamido)-2-methylphenyl)-N-isopropylpyrazine-2 carboxamide] here?
The IC50 was 0.101 to 0.25 µM.

And the IC50 [1]?
The IC50 was 51 to 100 nM.

With `CCNC(=O)c1cc(-c2ccc(NC(=O)C(O)c3cc(F)cc(F)c3)cc2CC)cnc1N` (stereo not drawn) [Example 99, 2-amino-5-(4-(2-(3,5-difluorophenyl)-2-hydroxyacetamido)-2-ethylphenyl)-N-ethylnicotinamide] as the molecule, how does the IC50 (PERK) read?
The IC50 was 0.101 to 0.25 µM.

What about the IC50 [1] of the same molecule?
The IC50 was 26 to 50 nM.

`CC(C)NC(=O)c1cc(-c2ccc(NC(=O)C(O)c3cc(F)cc(F)c3)cc2F)cnc1N` (stereo not drawn) [Example 32, 2-amino-5-(4-(2-(3,5-difluorophenyl)-2-hydroxyacetamido)-2-fluorophenyl)-N-isopropylnicotinamide] was tested. Which IC50 (PERK) did it give?
The IC50 was 0.051 to 0.1 µM.

And the IC50 [1]?
The IC50 was 1 to 25 nM.

What does the source list for `Cc1cc(NC(=O)CC2CCCC2)ccc1-c1cnc(N)c(C(=O)NC(C)C)c1` [Example 215, 2-amino-5-(4-(2-cyclopentylacetamido)-2-methylphenyl)-N-isopropylnicotinamide]?
IC50 (PERK): > 5 µM; IC50 [1]: > 5000 nM

With `Cc1cc(NC(=O)C(O)c2cc(F)cc(F)c2)ccc1-c1cncc(C(=O)NC(C)C)c1` (stereo not drawn) [Example 179, 5-(4-(2-(3,5-difluorophenyl)-2-hydroxyacetamido)-2-methylphenyl)-N-isopropylnicotinamide] as the molecule, how does the IC50 (PERK) read?
Its IC50 is 0.501 to 1 µM.

What about the IC50 [1] of the same molecule?
Its IC50 is 101 to 250 nM.

With `Cc1cc(NC(=O)Cc2ccc3ncccc3c2)ccc1-c1cnc(N)c(C(=O)NC(C)C)c1` [Example 209, 2-amino-N-isopropyl-5-(2-methyl-4-(2-(quinolin-6-yl)acetamido)phenyl)nicotinamide] as the molecule, how does the IC50 (PERK) read?
The IC50 was 1 to 2 µM.

And the IC50 [1]?
The IC50 was 101 to 250 nM.

How did the IC50 (PERK) turn out when `CCc1cc(NC(=O)C(O)c2cccc(C)c2)ccc1-c1cnc(N)c(C(=O)NC(C)C)n1` (stereo not drawn) [Example 161, 3-amino-6-(2-ethyl-4-(2-hydroxy-2-(m-tolyl)acetamido)phenyl)-N-isopropylpyrazine-2-carboxamide] was run?
Its IC50 is 0.251 to 0.5 µM.

What about the IC50 [1] of the same molecule?
The IC50 was 51 to 100 nM.

What does the source list for `CCc1ccc(CC(=O)Nc2ccc(-c3cnc(N)c(C(=O)NC(C)C)c3)c(C)c2)cc1` [Example 206, 2-amino-5-(4-(2-(4-ethylphenyl)acetamido)-2-methylphenyl)-N-isopropylnicotinamide]?
IC50 (PERK): 2 to 3 µM; IC50 [1]: 251 to 500 nM

`Cc1c(-c2cnc(N)c(C(=O)NC3CC3)c2)ccc(NC(=O)C(O)c2cc(F)cc(F)c2)c1F` (stereo not drawn) [Example 119, 2-amino-N-cyclopropyl-5-(4-(2-(3,5-difluorophenyl)-2-hydroxyacetamido)-3-fluoro-2-methylphenyl) nicotinamide] was tested. Which IC50 (PERK) did it give?
Its IC50 is 0.001 to 0.025 µM.

And the IC50 [1]?
The IC50 was 1 to 25 nM.

Which IC50 (PERK) does the source give for `Cc1cc(NC(=O)N(C)c2ccccc2)ccc1-c1cnc(N)c(C(=O)NC(C)C)c1` [Example 218, 2-amino-N-isopropyl-5-(2-methyl-4-(3-methyl-3-phenylureido)phenyl)nicotinamide] here?
The IC50 was > 5 µM.

And the IC50 [1]?
Its IC50 is 1000 to 2000 nM.

Which results are given for `Cc1cccc(CC(=O)Nc2ccc(-c3cnc(N)c(C(=O)NC(C)C)c3)c(C)c2)n1` [Example 185, 2-amino-N-isopropyl-5-(2-methyl-4-(2-(6-methylpyridin-2-yl)acetamido)phenyl)nicotinamide]?
IC50 (PERK): 0.251 to 0.5 µM; IC50 [1]: 1 to 25 nM

How did the IC50 (PERK) turn out when `Cc1cc(NC(=O)C(O)c2cc(F)cc(F)c2)ccc1-c1cnc(N)c(C(=O)N(C)C)c1` (stereo not drawn) [Example 22, 2-amino-5-(4-(2-(3,5-difluorophenyl)-2-hydroxyacetamido)-2-methylphenyl)-N,N-dimethylnicotinamide] was run?
Its IC50 is 2 to 3 µM.

And the IC50 [1]?
The IC50 was 501 to 1000 nM.

Which IC50 (PERK) does the source give for `Cc1cc(NC(=O)C(O)c2cc(F)cc(F)c2)ccc1-c1cnc(N)c(C(=O)NCCO)c1` (stereo not drawn) [Example 57, 2-amino-5-(4-(2-(3,5-difluorophenyl)-2-hydroxyacetamido)-2-methylphenyl)-N-(2-hydroxyethyl) nicotinamide] here?
Its IC50 is 2 to 3 µM.

What about the IC50 [1] of the same molecule?
Its IC50 is 101 to 250 nM.

For `CC(C)NC(=O)c1cc(-c2ccc(NC(=O)C(O)c3cc(F)cc(F)c3)cc2)cnc1N` (stereo not drawn) [Example 81, 2-amino-5-(4-(2-(3,5-difluorophenyl)-2-hydroxyacetamido)phenyl)-N-isopropylnicotinamide], which IC50 (PERK) is on record?
The IC50 was 4 to 5 µM.

And the IC50 [1]?
The IC50 was 101 to 250 nM.

With `Cc1cc(NC(=O)C(F)(F)c2ccccc2)ccc1-c1cnc(N)c(C(=O)NC(C)C)c1` [Example 183, 2-amino-5-(4-(2,2-difluoro-2-phenylacetamido)-2-methylphenyl)-N-isopropylnicotinamide] as the molecule, how does the IC50 (PERK) read?
The IC50 was 2 to 3 µM.

And the IC50 [1]?
Its IC50 is 101 to 250 nM.

What does the source list for `Cc1cc(NC(=O)C(O)c2cc(F)cc(F)c2)ccc1-c1cnc(N)c(C(=O)NC2COC2)c1` (stereo not drawn) [Example 25, 2-amino-5-(4-(2-(3,5-difluorophenyl)-2-hydroxyacetamido)-2-methylphenyl)-N-(oxetan-3-yl)nicotinamide]?
IC50 (PERK): 0.501 to 1 µM; IC50 [1]: 26 to 50 nM

What does the source list for `Cc1cc(NC(=O)C(O)c2cc(F)cc(F)c2)ccc1-c1cnc(N)c(C(=O)O)c1` (stereo not drawn) [Example 41, 2-amino-5-(4-(2-(3,5-difluorophenyl)-2-hydroxyacetamido)-2-methylphenyl) nicotinic acid]?
IC50 (PERK): > 5 µM; IC50 [1]: 101 to 250 nM

What does the source list for `Cc1cc(NC(=O)C(O)c2cccc(Cl)c2)ccc1-c1cnc(N)c(C(=O)NC(C)C)c1` (stereo not drawn) [Example 68, 2-amino-5-(4-(2-(3-chlorophenyl)-2-hydroxyacetamido)-2-methylphenyl)-N-isopropylnicotinamide]?
IC50 (PERK): 0.501 to 1 µM; IC50 [1]: 101 to 250 nM

Which results are given for `Cc1cc(NC(=O)Oc2ccccc2)ccc1-c1cnc(N)c(C(=O)NC(C)C)c1` [Example 219, phenyl (4-(6-amino-5-(isopropylcarbamoyl)pyridin-3-yl)-3-methylphenyl)carbamate]?
IC50 (PERK): 1 to 2 µM; IC50 [1]: 1000 to 2000 nM

From patent US12473296B2, “Perk inhibiting compounds” (HiberCell, Inc., priority 2019, dated 2025)
